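Growth conditions: 96-well plates. Treatment: test compound, 48 hours, 5 concentrations. Analysis: linear interpolation between bracketing concentrations; unreached endpoints set to highest concentration. Abbreviation: GI50, concentration required for 50% inhibition of growth. Definition used: TGI = concentration required for complete inhibition of growth.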
Tests used:
Experiment in all cases: NCI-60 cell line screen, 48 h
NCI-H23 lung = tested on: NCI-H23 lung
NCI-H522 lung = tested on: NCI-H522 lung
MOLT-4 leukemia = tested on: MOLT-4 leukemia
HT29 colon = tested on: HT29 colon
EKVX NSCLC = tested on: EKVX NSCLC
CAKI-1 renal = tested on: CAKI-1 renal
UO-31 renal = tested on: UO-31 renal
HOP-92 NSCLC = tested on: HOP-92 NSCLC
PC-3 prostate = tested on: PC-3 prostate

Structure (SMILES) | TGI (NCI-H23 lung) [µM] | TGI (NCI-H522 lung) [µM] | TGI (MOLT-4 leukemia) [µM] | TGI (HT29 colon) [µM] | TGI (EKVX NSCLC) [µM] | TGI (CAKI-1 renal) [µM] | TGI (UO-31 renal) [µM] | TGI (HOP-92 NSCLC) [µM] | GI50 (NCI-H23 lung) [µM] | GI50 (NCI-H522 lung) [µM] | GI50 (MOLT-4 leukemia) [µM] | GI50 (HT29 colon) [µM] | GI50 (EKVX NSCLC) [µM] | GI50 (CAKI-1 renal) [µM] | GI50 (UO-31 renal) [µM] | GI50 (PC-3 prostate) [µM] | TGI (PC-3 prostate) [µM]
O=C(Nc1c(-c2nc3ccccc3[nH]2)sc(=S)n1-c1ccccc1)c1ccccc1 | > 100 | > 100 | > 100 | > 100 | > 100 | > 100 | > 100 |  |  |  |  |  |  |  |  |  | 
O=C(CCC(=O)Nc1ccc(Cl)cc1)CC(=O)c1ccc(F)cc1 | > 100 | > 100 | > 100 | > 100 |  | > 100 | > 100 | > 100 |  |  |  |  |  |  |  |  | 
CCC[CH2][Sn]([CH2]CCC)([O]C(=O)c1cccc(F)c1)[O]C(=O)c1cccc(F)c1 | 1.57 | 0.91 | 2.41 | 3.38 | 2.96 | 1.43 | 2.47 |  | 0.329 | 0.246 | 0.363 | 1.73 | 1.3 | 0.369 | 1.23 |  | 
O=c1cc(Cl)nc[nH]1 | > 100 | > 100 | > 100 | > 100 | > 100 | > 100 | > 100 |  |  |  |  |  |  |  |  |  | 
CC(c1ccc(Br)cc1)C(C(=O)O)C(=O)O (configuration not stated) | > 100 | > 100 | > 100 | > 100 | > 100 | > 100 | > 100 |  |  |  |  |  |  |  |  |  | 
CCCNCc1nc2ccc(Br)cc2c(=O)n1CCC | 26.2 | 26.8 | > 100 | 29.9 | 33.3 |  | 29.8 |  |  |  |  |  |  |  |  |  | 
O=c1c2ccc3cccc4c(=O)cc(c5ccccc15)-c2c34 | > 100 | > 100 | > 100 | > 100 | > 100 | > 100 | > 100 |  |  |  |  |  |  |  |  |  | 
Cc1ccccc1C(=O)Oc1ccc(Oc2ccccc2)cc1 | > 100 |  | > 100 | > 100 | > 100 | > 100 | > 100 |  |  |  |  |  |  |  |  |  | 
Cc1cc(NS(=O)(=O)c2ccc(NC(=O)c3cccc4c(N)c5ccccc5nc34)cc2)no1 | 52.2 | 33.9 | > 100 | 80.8 | > 100 | 80.4 | 95.7 |  |  |  |  |  |  |  |  |  | 
CC(C)C(=O)N[C@@H](C)C(=O)N(Cc1ccc2ccccc2c1)N=O |  |  | > 100 | > 100 | > 100 | > 100 | > 100 |  |  |  |  |  |  |  |  |  | 
N=C(c1ccccc1)N(O)C1CCCCC1 | > 100 | > 100 |  | > 100 | > 100 | > 100 | > 100 | > 100 |  |  |  |  |  |  |  |  | 
C=C1CC(CCCl)(c2ccccc2)OC1=O (configuration not stated) | > 100 | 33.2 | 49.9 | > 72.1 | > 63.1 |  | > 100 | 34.2 |  |  |  |  |  |  |  |  | 
Cc1ccc(NC(=O)/C(CC(=O)c2c[n+](=O)c3ccccc3n2O)=N\NC(=O)C[n+]2ccccc2)cc1 |  | > 100 | > 100 | > 100 | > 100 | > 100 | > 100 |  |  |  |  |  |  |  |  |  | 
C(=C\c1csnn1)/c1cccnc1 | > 100 | > 100 | > 100 | > 100 | > 100 |  | > 100 |  |  |  |  |  |  |  |  |  | 
O=C1c2ccccc2C(=O)N1c1ccc(S(=O)(=O)Nc2ncccn2)cc1 | > 100 | > 100 | > 100 | > 100 | > 100 | > 100 | > 100 |  | > 100 | > 100 | > 100 | > 100 | > 100 | > 100 | > 100 | > 100 | > 100
COc1cc2c(c(OC)c1OC)-c1[nH]ncc1CC2 | > 100 |  | > 100 | > 100 | > 100 | > 100 | > 100 | > 100 |  |  |  |  |  |  |  |  | 
O=c1ccccc2cccc(O)c12 | > 100 |  | > 100 | > 100 | > 100 | > 100 |  | > 100 |  |  |  |  |  |  |  |  | 
O=C1CCCC/C1=C/C=C/c1ccccc1 | > 100 | 61.2 | > 100 | > 100 |  | > 100 | > 100 | > 100 |  |  |  |  |  |  |  |  | 
Nc1ccc(Nc2nc(F)nc(-c3c4ccccc4c4n3CCS4)n2)cc1 | 32.7 | 28.6 | 50.9 |  | 48.2 | 23.6 | 22.2 | 30.5 |  |  |  |  |  |  |  |  | 
CCCCC(=O)N/N=C/c1cc(I)cc(I)c1O |  | 17.5 | 13 | 29.4 |  | 10.5 | 11.1 |  |  | 2.91 | 2.39 | 8.46 |  | 1.58 | 1.28 | 3.35 | 20.9
COc1ccc(C(c2ccc(C(C)C)cc(=O)c2O)c2c(O)cc3oc(-c4ccccc4)cc(=O)c3c2O)cc1 (configuration not stated) | 55.7 |  | 48.4 | 62.9 | > 100 | 36.3 |  | 3.53 |  |  |  |  |  |  |  |  | 
O=C(O)/C(=C/c1ccccc1[N+](=O)[O-])c1ccccc1 | > 100 | > 100 | > 100 | > 100 | > 100 | > 100 | > 100 |  |  |  |  |  |  |  |  |  | 

— PubChem BioAssay (NCI)
